# Patent US9096591B2, “Tetracyclic compounds” (Medivation Technologies, Inc., priority 2007, dated 2015)
# Key:
# [1] = molecular target: T1, human recombinant histamine H1 receptor (Homo sapiens, UniProt P35367); test: Histamine H1 radioligand binding ([3H]Pyrilamine); settings: percent inhibition of specific binding; screened at 1 μM; read-out: Inhibition of ligand binding, Hist. H1
# T1 construct: expressed in transfected cells; host or cells: CHO cells
# How it was run: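 Receptor expressed in CHO cells, assayed in 50 mM Tris-HCl pH 7.4 with 2 mM MgCl2, 100 mM NaCl, 250 mM sucrose. Compounds tested at 1 μM in 1% DMSO; non-specific binding set with 1 μM pyrilamine. Filter-bound radioactivity counted; values are percent inhibition of specific binding.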
# [2] = molecular target: T2, human recombinant adrenergic α1D receptor (Homo sapiens, UniProt P25100); test: Adrenergic α1D radioligand binding ([3H]Prozosin); parameters: Inhibition of ligand binding, Adren. alpha1D: concentration or dose not given beside the values; settings: percent inhibition of specific binding
# T2 construct: expressed in transfected cells; host or cells: HEK-293 cells
# T2 sequence (P25100 1-572): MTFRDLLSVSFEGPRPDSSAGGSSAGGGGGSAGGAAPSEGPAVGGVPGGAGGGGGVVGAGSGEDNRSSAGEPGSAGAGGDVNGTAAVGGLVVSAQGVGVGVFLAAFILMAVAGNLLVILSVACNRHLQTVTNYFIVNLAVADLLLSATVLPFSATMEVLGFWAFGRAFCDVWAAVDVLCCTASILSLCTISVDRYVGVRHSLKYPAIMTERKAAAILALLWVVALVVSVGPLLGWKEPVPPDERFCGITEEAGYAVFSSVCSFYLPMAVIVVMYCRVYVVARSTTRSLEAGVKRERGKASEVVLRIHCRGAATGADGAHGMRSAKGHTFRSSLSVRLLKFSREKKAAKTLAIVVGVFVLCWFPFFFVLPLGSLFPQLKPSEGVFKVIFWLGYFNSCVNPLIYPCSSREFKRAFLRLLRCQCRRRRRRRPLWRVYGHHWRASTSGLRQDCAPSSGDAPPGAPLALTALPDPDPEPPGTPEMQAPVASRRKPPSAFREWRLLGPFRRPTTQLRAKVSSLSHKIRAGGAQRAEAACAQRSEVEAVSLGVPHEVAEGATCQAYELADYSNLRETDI
# Procedure: Compounds of invention were incubated with 0.6 nM [^3H]Prozosin for 60 minutes at 25° C. Non-specific binding was estimated in the presence of 10 μM phentolamine. Receptor proteins were filtered and washed, the filters were then counted to determine [^3H]Prozosin specifically bound. […] Biochemical assay results are presented as the percent inhibition of specific binding in Table 6.
# [3] = molecular target: T3, human recombinant adrenergic α2B receptor (Homo sapiens, UniProt P18089); test: Adrenergic α2B radioligand binding ([3H]Rauwolscine); parameters: Inhibition of ligand binding, Adren. alpha2B: concentration or dose not given beside the values; settings: percent inhibition of specific binding
# T3 construct: expressed in transfected cells; host or cells: CHO-K1 cells
# T3 sequence (P18089 1-450): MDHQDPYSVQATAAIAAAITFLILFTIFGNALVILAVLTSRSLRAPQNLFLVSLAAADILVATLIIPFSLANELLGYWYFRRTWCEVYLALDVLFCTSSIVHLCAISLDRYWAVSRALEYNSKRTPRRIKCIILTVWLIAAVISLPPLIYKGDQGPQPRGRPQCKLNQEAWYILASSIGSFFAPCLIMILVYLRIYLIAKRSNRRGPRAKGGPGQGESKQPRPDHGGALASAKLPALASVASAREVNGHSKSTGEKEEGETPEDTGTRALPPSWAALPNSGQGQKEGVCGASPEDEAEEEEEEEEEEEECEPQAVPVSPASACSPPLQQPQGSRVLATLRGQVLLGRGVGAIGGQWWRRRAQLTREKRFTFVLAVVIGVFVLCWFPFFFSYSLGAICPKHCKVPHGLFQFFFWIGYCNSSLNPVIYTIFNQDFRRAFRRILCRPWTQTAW
# How it was run: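 Membranes from CHO-K1 cells expressing the receptor, in 50 mM Tris-HCl pH 7.4 with 12.5 mM MgCl2, 1 mM EDTA, 0.2% BSA, incubated with compounds and 2.5 nM [3H]Rauwolscine for 60 minutes at 25 °C.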
# [4] = molecular target: T4, human recombinant dopamine D2L receptor (Homo sapiens, UniProt P14416); test: Dopamine D2L radioligand binding ([3H]Spiperone); settings: percent inhibition of specific binding
# T4 construct: expressed in transfected cells; host or cells: CHO cells
# Procedure: Non-specific binding was estimated in the presence of 10 μM Haloperidol. Receptor proteins were filtered and washed, the filters were then counted to determine [^3H]Spiperone specifically bound. […] Biochemical assay results are presented as the percent inhibition of specific binding in Table 6.
# [5] = molecular target: T5, human recombinant serotonin (5-Hydroxytryptamine) 5-HT2A receptor (Homo sapiens, UniProt P28223); test: Serotonin 5-HT2A radioligand binding ([3H]Ketanserin); settings: percent inhibition of specific binding
# T5 construct: expressed in transfected cells; host or cells: CHO-K1 cells
# Procedure: Compounds of the invention were incubated with 0.5 nM [^3H]Ketanserin for 60 minutes at 25° C. Non-specific binding was estimated in the presence of 1 μM Mianserin. Receptor proteins were filtered and washed, the filters were then counted to determine [^3H]Ketanserin specifically bound. […] Biochemical assay results are presented as the percent inhibition of specific binding in Table 6.
# [6] = molecular target: T6, human recombinant serotonin (5-Hydroxytryptamine) 5-HT6 receptor (Homo sapiens, UniProt P50406); test: Serotonin 5-HT6 radioligand binding ([3H]LSD); parameters: Inhibition of ligand binding, Ser. 5-HT6: concentration or dose not given beside the values; settings: percent inhibition of specific binding
# T6 construct: expressed in transfected cells; host or cells: human HeLa cells
# Description: Receptor proteins were filtered and washed, the filters were then counted to determine [3H]LSD specifically bound. […] Biochemical assay results are presented as the percent inhibition of specific binding in Table 6.
# T1 sequence (P35367 whole entry): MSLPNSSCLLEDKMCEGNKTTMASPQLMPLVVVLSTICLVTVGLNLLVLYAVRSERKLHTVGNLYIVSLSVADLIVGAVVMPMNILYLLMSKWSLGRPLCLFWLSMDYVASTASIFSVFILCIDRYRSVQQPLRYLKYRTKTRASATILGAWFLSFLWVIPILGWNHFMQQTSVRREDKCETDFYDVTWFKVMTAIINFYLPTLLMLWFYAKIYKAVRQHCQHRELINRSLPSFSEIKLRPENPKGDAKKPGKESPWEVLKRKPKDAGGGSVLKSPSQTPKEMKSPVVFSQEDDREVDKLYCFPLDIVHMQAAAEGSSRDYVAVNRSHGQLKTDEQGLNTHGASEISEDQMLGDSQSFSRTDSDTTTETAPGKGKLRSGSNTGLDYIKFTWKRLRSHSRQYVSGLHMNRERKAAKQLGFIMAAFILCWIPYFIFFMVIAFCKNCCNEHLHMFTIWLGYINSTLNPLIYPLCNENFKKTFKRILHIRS
# T4 sequence (P14416 whole entry): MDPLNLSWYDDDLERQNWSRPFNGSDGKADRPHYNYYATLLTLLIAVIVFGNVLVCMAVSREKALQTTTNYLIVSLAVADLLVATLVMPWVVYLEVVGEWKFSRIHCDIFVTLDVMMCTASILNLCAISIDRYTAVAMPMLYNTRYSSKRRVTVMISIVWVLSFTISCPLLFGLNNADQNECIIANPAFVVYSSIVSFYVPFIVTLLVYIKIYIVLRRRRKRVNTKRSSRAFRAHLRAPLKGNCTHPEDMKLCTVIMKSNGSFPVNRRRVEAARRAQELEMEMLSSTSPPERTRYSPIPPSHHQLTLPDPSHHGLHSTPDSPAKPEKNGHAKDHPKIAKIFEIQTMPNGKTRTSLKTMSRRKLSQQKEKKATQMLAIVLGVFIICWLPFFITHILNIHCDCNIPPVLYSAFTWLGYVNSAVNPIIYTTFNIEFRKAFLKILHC
# T5 sequence (P28223 whole entry): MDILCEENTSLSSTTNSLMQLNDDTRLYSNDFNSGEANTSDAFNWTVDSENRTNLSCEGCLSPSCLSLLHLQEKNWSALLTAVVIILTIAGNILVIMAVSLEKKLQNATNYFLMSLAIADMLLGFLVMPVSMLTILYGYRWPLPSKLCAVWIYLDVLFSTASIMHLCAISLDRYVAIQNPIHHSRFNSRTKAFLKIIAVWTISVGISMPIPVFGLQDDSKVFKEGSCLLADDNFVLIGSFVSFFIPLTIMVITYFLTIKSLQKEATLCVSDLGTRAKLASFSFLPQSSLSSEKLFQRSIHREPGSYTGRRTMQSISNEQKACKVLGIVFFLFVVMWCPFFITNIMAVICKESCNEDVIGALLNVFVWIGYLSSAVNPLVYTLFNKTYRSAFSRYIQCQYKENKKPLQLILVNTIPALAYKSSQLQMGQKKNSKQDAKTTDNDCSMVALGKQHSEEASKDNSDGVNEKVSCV
# T6 sequence (P50406 whole entry): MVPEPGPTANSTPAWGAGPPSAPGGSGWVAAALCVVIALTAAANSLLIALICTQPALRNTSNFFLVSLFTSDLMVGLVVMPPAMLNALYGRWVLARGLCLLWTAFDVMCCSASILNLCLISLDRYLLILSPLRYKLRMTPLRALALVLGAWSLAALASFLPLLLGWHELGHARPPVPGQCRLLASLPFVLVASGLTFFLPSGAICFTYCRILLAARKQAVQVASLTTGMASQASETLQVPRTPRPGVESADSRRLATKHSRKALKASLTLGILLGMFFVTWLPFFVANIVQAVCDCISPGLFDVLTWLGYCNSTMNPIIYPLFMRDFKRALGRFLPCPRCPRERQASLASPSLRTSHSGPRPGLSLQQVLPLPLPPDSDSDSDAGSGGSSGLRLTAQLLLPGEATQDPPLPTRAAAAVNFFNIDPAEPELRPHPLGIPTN
structure (smiles),measurement,setting,value
"CN1CCc2c(c3cc(Cl)ccc3n2CC(=O)N2CC[S+]([O-])CC2)C1 [Compound 296, 2-(8-Chloro-2-methyl-1,2,3,4-tetrahydro-pyrido[4,3-b]indol-5-yl)-1-(1-oxo-1l4-thiomorpholin-4-yl)-ethanone]",inhibition at 1 µM,[1],36%
same,"Inhibition of ligand binding, Adren. alpha1D",[2],3%
same,"Inhibition of ligand binding, Adren. alpha2B",[3],−8%
same,"Inhibition of ligand binding, Dop. D2L",[4],3%
same,"Inhibition of ligand binding, Ser. 5-HT2A",[5],11%
same,"Inhibition of ligand binding, Ser. 5-HT6",[6],3%
"Cc1ccc2c(c1)c1c(n2CCc2cnc(C)cn2)CCN(C)C1 [Compound 322, 2,8-dimethyl-5-(2-(5-methylpyrazin-2-yl)ethyl)-2,3,4,5-tetrahydro-1H-pyrido[4,3-b]indole]",inhibition at 1 µM,[1],89%
same,"Inhibition of ligand binding, Adren. alpha1D",[2],66%
same,"Inhibition of ligand binding, Adren. alpha2B",[3],115%
same,"Inhibition of ligand binding, Dop. D2L",[4],5%
same,"Inhibition of ligand binding, Ser. 5-HT2A",[5],64%
same,"Inhibition of ligand binding, Ser. 5-HT6",[6],75%
"Cc1ccc2c(c1)c1c(n2CCc2cnc(C)nc2)CCN(C)C1 [Compound 323, 2,3,4,5-tetrahydro-2,8-dimethyl-5-(2-(2-methylpyrimidin-5-yl)ethyl)-1H-pyrido[4,3-b]indole]",inhibition at 1 µM,[1],93%
same,"Inhibition of ligand binding, Adren. alpha1D",[2],49%
same,"Inhibition of ligand binding, Adren. alpha2B",[3],62%
same,"Inhibition of ligand binding, Dop. D2L",[4],8%
same,"Inhibition of ligand binding, Ser. 5-HT2A",[5],16%
same,"Inhibition of ligand binding, Ser. 5-HT6",[6],69%
"CN1CCc2c(c3cc(Cl)ccc3n2CCCc2ccc(C(F)(F)F)nc2)C1 [Compound 324, 8-chloro-5-(3-(6-(trifluoromethyl)pyridin-3-yl)propyl)-2,3,4,5-tetrahydro-2-methyl-1H-pyrido[4,3-b]indole]",inhibition at 1 µM,[1],101%
same,"Inhibition of ligand binding, Adren. alpha1D",[2],53%
same,"Inhibition of ligand binding, Adren. alpha2B",[3],98%
same,"Inhibition of ligand binding, Dop. D2L",[4],28%
same,"Inhibition of ligand binding, Ser. 5-HT2A",[5],86%
same,"Inhibition of ligand binding, Ser. 5-HT6",[6],93%
"CC1CCN(C(=O)CCn2c3c(c4cc(Cl)ccc42)CN(C)CC3)CC1 [Compound 325, 3-(8-chloro-1,2,3,4-tetrahydro-2-methylpyrido[4,3-b]indol-5-yl)-1-(4-methylpiperidin-1-yl)propan-1-one]",inhibition at 1 µM,[1],90%
same,"Inhibition of ligand binding, Adren. alpha1D",[2],36%
same,"Inhibition of ligand binding, Adren. alpha2B",[3],58%
same,"Inhibition of ligand binding, Dop. D2L",[4],−3%
same,"Inhibition of ligand binding, Ser. 5-HT2A",[5],53%
same,"Inhibition of ligand binding, Ser. 5-HT6",[6],41%
"CN1CCc2c(c3cc(Cl)ccc3n2CCC(=O)N2CCCCC2)C1 [Compound 326, 3-(8-chloro-1,2,3,4-tetrahydro-2-methylpyrido[4,3-b]indol-5-yl)-1-(piperidin-1-yl)propan-1-one]",inhibition at 1 µM,[1],47%
same,"Inhibition of ligand binding, Adren. alpha1D",[2],40%
same,"Inhibition of ligand binding, Adren. alpha2B",[3],52%
same,"Inhibition of ligand binding, Dop. D2L",[4],−5%
same,"Inhibition of ligand binding, Ser. 5-HT2A",[5],27%
same,"Inhibition of ligand binding, Ser. 5-HT6",[6],26%
"CN1CCc2c(c3cc(Cl)ccc3n2CCC(=O)N2CCOCC2)C1 [Compound 328, 3-(8-chloro-1,2,3,4-tetrahydro-2-methylpyrido[4,3-b]indol-5-yl)-1-morpholinopropan-1-one]",inhibition at 1 µM,[1],56%
same,"Inhibition of ligand binding, Adren. alpha1D",[2],23%
same,"Inhibition of ligand binding, Adren. alpha2B",[3],21%
same,"Inhibition of ligand binding, Dop. D2L",[4],6%
same,"Inhibition of ligand binding, Ser. 5-HT2A",[5],46%
same,"Inhibition of ligand binding, Ser. 5-HT6",[6],29%
"Cc1ccc2c(c1)c1c(n2CC(=O)N2CCOCC2)CCN(C)C1 [Compound 330, 2-(1,2,3,4-tetrahydro-2,8-dimethylpyrido[4,3-b]indol-5-yl)-1-morpholinoethanone]",inhibition at 1 µM,[1],8%
same,"Inhibition of ligand binding, Adren. alpha1D",[2],8%
same,"Inhibition of ligand binding, Adren. alpha2B",[3],6%
same,"Inhibition of ligand binding, Dop. D2L",[4],−8%
same,"Inhibition of ligand binding, Ser. 5-HT2A",[5],14%
same,"Inhibition of ligand binding, Ser. 5-HT6",[6],19%
"Cc1ccc2c(c1)c1c(n2CCCc2ccc(C(F)(F)F)nc2)CCN(C)C1 [Compound 331, 5-(3-(6-(trifluoromethyl)pyridin-3-yl)propyl)-2,3,4,5-tetrahydro-2,8-dimethyl-1H-pyrido[4,3-b]indole]",inhibition at 1 µM,[1],102%
same,"Inhibition of ligand binding, Adren. alpha1D",[2],63%
same,"Inhibition of ligand binding, Adren. alpha2B",[3],105%
same,"Inhibition of ligand binding, Dop. D2L",[4],20%
same,"Inhibition of ligand binding, Ser. 5-HT2A",[5],93%
same,"Inhibition of ligand binding, Ser. 5-HT6",[6],100%
"CCOc1ccc(CCn2c3c(c4cc(C)ccc42)CN(C)CC3)cc1 [Compound 334, 5-[2-(4-Ethoxy-phenyl)-ethyl]-2,8-dimethyl-2,3,4,5-tetrahydro-1H-pyrido[4,3-b]indole]",inhibition at 1 µM,[1],99%
same,"Inhibition of ligand binding, Adren. alpha1D",[2],110%
same,"Inhibition of ligand binding, Adren. alpha2B",[3],111%
same,"Inhibition of ligand binding, Dop. D2L",[4],76%
same,"Inhibition of ligand binding, Ser. 5-HT2A",[5],101%
same,"Inhibition of ligand binding, Ser. 5-HT6",[6],101%
"Cc1ccc2c(c1)c1c(n2CCc2ccc(OC(C)(C)C)cc2)CCN(C)C1 [Compound 335, 5-(4-tert-butoxyphenethyl)-2,3,4,5-tetrahydro-2,8-dimethyl-1H-pyrido[4,3-b]indole]",inhibition at 1 µM,[1],96%
same,"Inhibition of ligand binding, Adren. alpha1D",[2],91%
same,"Inhibition of ligand binding, Adren. alpha2B",[3],104%
same,"Inhibition of ligand binding, Dop. D2L",[4],44%
same,"Inhibition of ligand binding, Ser. 5-HT2A",[5],97%
same,"Inhibition of ligand binding, Ser. 5-HT6",[6],9%
"COc1ccc(CCn2c3c(c4cc(Cl)ccc42)CN(C)CC3)cc1 [Compound 336, 8-Chloro-5-[2-(4-methoxy-phenyl)-ethyl]-2-methyl-2,3,4,5-tetrahydro-1H pyrido[4,3-b]indole]",inhibition at 1 µM,[1],107%
same,"Inhibition of ligand binding, Adren. alpha1D",[2],98%
same,"Inhibition of ligand binding, Adren. alpha2B",[3],103%
same,"Inhibition of ligand binding, Dop. D2L",[4],82%
same,"Inhibition of ligand binding, Ser. 5-HT2A",[5],96%
same,"Inhibition of ligand binding, Ser. 5-HT6",[6],104%
"COc1ccc(CCn2c3c(c4cc(Cl)ccc42)CN(C)CC3)cc1F [Compound 337, 5-(3-fluoro-4-methoxyphenethyl)-8-chloro-2,3,4,5-tetrahydro-2-methyl-1H-pyrido[4,3-b]indole]",inhibition at 1 µM,[1],99%
same,"Inhibition of ligand binding, Adren. alpha1D",[2],97%
same,"Inhibition of ligand binding, Adren. alpha2B",[3],117%
same,"Inhibition of ligand binding, Dop. D2L",[4],81%
same,"Inhibition of ligand binding, Ser. 5-HT2A",[5],101%
same,"Inhibition of ligand binding, Ser. 5-HT6",[6],104%
